The source of these data is ChEMBL document CHEMBL3272258, “Quantitative structure-activity relationships. 1. The modified Free-Wilson approach” (J Med Chem, 1976).

Test system in one series: not listed separately
Description: n-octanol-water partition coefficient, log P of the compound. Type of series: physicochemical.
Turning to `Cc1cccc(Cl)c1OCCCO`, the logP stood at 2.93.

For the molecule `Cc1cccc(Cl)c1OCC(C)O` (configuration not stated), the logP came out at 2.73.

The molecule `CC(O)COc1c(Cl)cccc1Cl` (configuration not stated) returned a logP of 2.64.

Take `Cc1cc(Cl)cc(C)c1OCC(O)CO` (configuration not stated): the logP was 2.76.

On to `Cc1ccccc1OCC(O)CO` (configuration not stated) [MEPHENESIN], for which the lipophilicity (logP) came to 1.38.

`Cc1cc(OCC(C)O)ccc1Cl` (configuration not stated) registered a logP of 2.67.

The molecule `OCCCOc1ccc(Cl)cc1` came in with a lipophilicity (logP) of 2.36.

`Cc1cc(Cl)cc(C)c1OCCCO` showed a logP of 3.72.

`CC(O)COc1ccc(Cl)cc1` (configuration not stated) showed a logP of 2.16.

As to `Cc1cccc(Cl)c1OCC(O)CO` (configuration not stated), the lipophilicity (logP) is 1.97. The logP values of the last two molecules are within 0.2 log units of each other.

`CC(O)COc1ccc(Cl)cc1Cl` (configuration not stated): the logP was 2.75.

`OCC(O)COc1ccccc1Cl` (configuration not stated) gave a logP of 1.29.

`Cc1cc(Cl)c(OCC(C)O)c(Cl)c1` (configuration not stated) showed a log partition coefficient (logP) of 3.16.

As for `Cc1ccccc1OCCCO`, the log partition coefficient (logP) is 2.34.

As to `Cc1cc(Cl)cc(C)c1OCC(C)O` (configuration not stated), the logP stood at 3.52.

For `Cc1ccccc1OCC(C)O` (configuration not stated), the logP is 2.14.

As to `Cc1cc(OCC(O)CO)ccc1Cl` (configuration not stated), the logP was found to be 1.91.

Consider `Cc1cc(Cl)ccc1OCC(C)O` (configuration not stated), for which the logP was 2.84.

The molecule `OCC(O)COc1ccc(Cl)cc1Cl` (configuration not stated) returned a log partition coefficient (logP) of 1.99.

As to `Cc1cc(Cl)c(OCC(O)CO)c(Cl)c1` (configuration not stated), the log partition coefficient (logP) is 2.4.

`Cc1cc(Cl)ccc1OCC(O)CO` (configuration not stated) came in with a logP of 2.08.

For the molecule `Cc1cc(Cl)c(OCCCO)c(Cl)c1`, the logP came to 3.36.

As to `OCC(O)COc1c(Cl)cccc1Cl` (configuration not stated), the logP was 1.88.

In turn, `Cc1cc(OCCCO)cc(C)c1Cl` had a log partition coefficient (logP) of 3.38.

In the case of `Cc1cc(OCC(C)O)cc(C)c1Cl` (configuration not stated), the logP amounted to 3.18.

The molecule `CC(O)COc1ccccc1Cl` (configuration not stated) gave a log partition coefficient (logP) of 2.05.

The molecule `OCC(O)COc1ccc(Cl)cc1` (configuration not stated) yielded a logP of 1.4.

As to `Cc1cc(OCC(O)CO)cc(C)c1Cl` (configuration not stated), the logP turned out to be 2.42.

For the next series, the species on record is Rattus norvegicus. The series is described as follows: Binding affinity to rat thyroid hormone receptor.
Consider `NC(Cc1cc(I)c(Oc2cc(Br)c(O)c(Br)c2)c(I)c1)C(=O)O` (racemic), for which the log(activity) was determined as 1.

`NC(Cc1cc(Cl)c(Oc2cc(I)c(O)c(I)c2)c(Cl)c1)C(=O)O` (racemic) had a log(activity) of -1.

`NC(Cc1cc(Br)c(Oc2ccc(O)c(I)c2)c(Br)c1)C(=O)O` (racemic) showed a log(activity) of 2.11.

For `NC(Cc1cc(I)c(Oc2ccc(O)c(Br)c2)c(I)c1)C(=O)O` (racemic), the log(activity) is 2.3.

Consider `NC(Cc1cc(Br)c(Oc2cc(Br)c(O)c(Br)c2)c(Br)c1)C(=O)O` (racemic), for which the log(activity) was -0.29.

`NC(Cc1cc(I)c(Oc2ccc(O)c(I)c2)c(I)c1)C(=O)O` (racemic) showed a log(activity) of 2.74.

On to `NC(Cc1cc(I)c(Oc2cc(Cl)c(O)c(Cl)c2)c(I)c1)C(=O)O` (racemic), for which the log(activity) is -0.05.

The molecule `NC(Cc1cc(I)c(Oc2cc(I)c(O)c(I)c2)c(I)c1)C(=O)O` (racemic) had a log(activity) of 2.

`NC(Cc1cc(Br)c(Oc2ccc(O)c(Br)c2)c(Br)c1)C(=O)O` (racemic) yielded a log(activity) of 1.64.

As to `NC(Cc1cc(I)c(Oc2cc(F)c(O)c(I)c2)c(I)c1)C(=O)O` (racemic), the log(activity) stood at 1.45.

Molecule `NC(Cc1cc(I)c(Oc2cc(F)c(O)c(F)c2)c(I)c1)C(=O)O` (racemic) showed a log(activity) of 0.26.

On to `NC(Cc1cc(I)c(Oc2ccc(O)cc2)c(I)c1)C(=O)O` (racemic), for which the log(activity) was -0.43.

Consider `NC(Cc1cc(I)c(Oc2ccc(O)c(F)c2)c(I)c1)C(=O)O` (racemic), for which the log(activity) stood at 0.38.

`NC(Cc1cc(Br)c(Oc2cc(I)c(O)c(I)c2)c(Br)c1)C(=O)O` (racemic) yielded a log(activity) of 1.1.

The subject of another series is Trichophyton mentagrophytes. Description: Antifungal activity against Trichophyton mentagrophytes assessed as growth inhibition measured for 14 days by tube dilution method. The series is classed as functional.
As for `Cc1cccc(Cl)c1OCCCO`, the “log(1/C)” value was determined as 2.78.

In the case of `Cc1cccc(Cl)c1OCC(C)O` (configuration not stated), the “log(1/C)” value is on record as 2.7.

On to `CC(O)COc1c(Cl)cccc1Cl` (configuration not stated), for which the “log(1/C)” value was found to be 3.04.

`Cc1cc(Cl)cc(C)c1OCC(O)CO` (configuration not stated): the “log(1/C)” value came to 2.76.

On to `Cc1ccccc1OCC(O)CO` (configuration not stated) [MEPHENESIN], for which the “log(1/C)” value is 2.26.

Regarding `Cc1cc(OCC(C)O)ccc1Cl` (configuration not stated), the “log(1/C)” value was 3.3.

`OCCCOc1ccc(Cl)cc1`: the “log(1/C)” value turned out to be 3.07.

For the molecule `Cc1cc(Cl)cc(C)c1OCCCO`, the “log(1/C)” value is recorded as 3.51.

On to `CC(O)COc1ccc(Cl)cc1` (configuration not stated), for which the “log(1/C)” value came out at 2.81.

`Cc1cccc(Cl)c1OCC(O)CO` (configuration not stated): the “log(1/C)” value came out at 2.33.

Regarding `CC(O)COc1ccc(Cl)cc1Cl` (configuration not stated), the “log(1/C)” value stood at 3.35.

In the case of `OCC(O)COc1ccccc1Cl` (configuration not stated), the “log(1/C)” value was determined as 2.31.

Consider `Cc1cc(Cl)c(OCC(C)O)c(Cl)c1` (configuration not stated), for which the “log(1/C)” value is on record as 3.47.

With `Cc1ccccc1OCCCO`, the “log(1/C)” value came to 2.79.

Consider `Cc1cc(Cl)cc(C)c1OCC(C)O` (configuration not stated), for which the “log(1/C)” value was 3.51.

Regarding `Cc1ccccc1OCC(C)O` (configuration not stated), the “log(1/C)” value is recorded as 2.46.

Regarding `Cc1cc(OCC(O)CO)ccc1Cl` (configuration not stated), the “log(1/C)” value is 2.9.

As to `Cc1cc(Cl)ccc1OCC(C)O` (configuration not stated), the “log(1/C)” value is on record as 3.3.

`OCC(O)COc1ccc(Cl)cc1Cl` (configuration not stated): the “log(1/C)” value was 2.61.

Take `Cc1cc(Cl)c(OCC(O)CO)c(Cl)c1` (configuration not stated): the “log(1/C)” value is reported as 3.1.

`Cc1cc(Cl)ccc1OCC(O)CO` (configuration not stated): the “log(1/C)” value was determined as 2.33.

`Cc1cc(Cl)c(OCCCO)c(Cl)c1`: the “log(1/C)” value came to 3.67.

`OCC(O)COc1c(Cl)cccc1Cl` (configuration not stated): the “log(1/C)” value was determined as 2.37.

On to `Cc1cc(OCCCO)cc(C)c1Cl`, for which the “log(1/C)” value is given as 3.93.

`Cc1cc(OCC(C)O)cc(C)c1Cl` (configuration not stated): the “log(1/C)” value turned out to be 3.68.

Take `CC(O)COc1ccccc1Cl` (configuration not stated): the “log(1/C)” value came out at 2.84.

`OCC(O)COc1ccc(Cl)cc1` (configuration not stated): the “log(1/C)” value came out at 2.31.

`Cc1cc(OCC(O)CO)cc(C)c1Cl` (configuration not stated): the “log(1/C)” value worked out at 3.24.

A further series is filed under the species Rattus norvegicus. Description: Antagonist activity at rat adrenergic receptor assessed as inhibition of adrenaline-induced response.
Take `CN(C)CC(Br)c1ccc(F)c(Br)c1` (configuration not stated): the log(1/C) was 8.57.

Regarding `CN(C)CC(Br)c1ccc(Br)cc1` (configuration not stated), the log(1/C) was found to be 8.89.

Consider `Cc1ccc(C(Br)CN(C)C)cc1` (configuration not stated), for which the log(1/C) was 9.3.

Consider `CN(C)CC(Br)c1ccc(Br)c(Cl)c1` (configuration not stated), for which the log(1/C) is 9.

Turning to `CN(C)CC(Br)c1ccccc1` (configuration not stated), the log(1/C) amounted to 7.46.

`CN(C)CC(Br)c1ccc(I)cc1` (configuration not stated): the log(1/C) amounted to 9.25.

For the molecule `CN(C)CC(Br)c1ccc(Br)c(Br)c1` (configuration not stated), the log(1/C) was 9.35.

For the molecule `CN(C)CC(Br)c1cccc(I)c1` (configuration not stated), the log(1/C) turned out to be 8.4.

In the case of `CN(C)CC(Br)c1ccc(Cl)cc1` (configuration not stated), the log(1/C) was 8.68.

In the case of `CN(C)CC(Br)c1ccc(F)c(Cl)c1` (configuration not stated), the log(1/C) is 8.19.

With `Cc1cccc(C(Br)CN(C)C)c1` (configuration not stated), the log(1/C) stood at 8.46.

Take `Cc1cc(C(Br)CN(C)C)ccc1F` (configuration not stated): the log(1/C) turned out to be 8.82.

Turning to `CN(C)CC(Br)c1cccc(F)c1` (configuration not stated), the log(1/C) is 7.52.

Take `CN(C)CC(Br)c1ccc(Cl)c(Br)c1` (configuration not stated): the log(1/C) was 8.92.

Turning to `Cc1cc(C(Br)CN(C)C)ccc1Br` (configuration not stated), the log(1/C) worked out at 9.22.

For the molecule `CN(C)CC(Br)c1cccc(Cl)c1` (configuration not stated), the log(1/C) came out at 8.16.

On to `Cc1ccc(C(Br)CN(C)C)cc1C` (configuration not stated), for which the log(1/C) came out at 9.3.

Consider `CN(C)CC(Br)c1ccc(F)cc1` (configuration not stated), for which the log(1/C) worked out at 8.16.

`CN(C)CC(Br)c1cccc(Br)c1` (configuration not stated): the log(1/C) is 8.3.

Consider `Cc1ccc(C(Br)CN(C)C)cc1Br` (configuration not stated), for which the log(1/C) came out at 9.52.

For `CN(C)CC(Br)c1ccc(Cl)c(Cl)c1` (configuration not stated), the log(1/C) amounted to 8.89.

Take `Cc1cc(C(Br)CN(C)C)ccc1Cl` (configuration not stated): the log(1/C) is 8.96.
